Experiment [1] concerns the target T1, Calpain-2 catalytic subunit (Sus scrofa, UniProt P43367).
T1 sequence (P43367 whole entry): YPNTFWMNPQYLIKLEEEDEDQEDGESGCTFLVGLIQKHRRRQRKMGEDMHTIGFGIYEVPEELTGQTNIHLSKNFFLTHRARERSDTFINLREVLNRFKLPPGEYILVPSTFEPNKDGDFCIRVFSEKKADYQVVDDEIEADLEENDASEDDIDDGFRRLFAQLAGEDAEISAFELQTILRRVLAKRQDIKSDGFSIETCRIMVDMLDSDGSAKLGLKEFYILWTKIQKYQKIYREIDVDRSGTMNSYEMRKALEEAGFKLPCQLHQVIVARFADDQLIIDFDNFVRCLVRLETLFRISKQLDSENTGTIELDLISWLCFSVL
The experiment in a line: m-calpain protease blockers, concentration series – biochemical, fluorogenic peptide substrate, dose response (AID 1420). The experiment is classed as functional.

For experiment [2], the system named is H4. Put plainly: Luminescence Cell-Based Dose Response HTS to Identify Activators of 5'UTR Stem-Loop Driven Prion Protein mRNA Translation in H4 Neuroglioblastoma Cells. [Related pubchem assays: 1829 (Project Summary), 1814 (Primary HTS)]. The class given is functional. The conditions noted are these: Homo sapiens.
A short description of experiment [3]: Luminescence Cell-Based Dose Confirmation HTS to Identify Activators of 5'UTR Stem-Loop Driven Alpha-Synuclein mRNA Translation in H4 Neuroglioblastoma Cells. [Related pubchem assays: 1829 (Project Summary), 1814 (Primary HTS)]. The experiment is classed as functional.
The nature of experiment [4]: Luminescence Cell-Based Dose Response HTS to Identify Activators of Luciferase Translation or Activity in H4 […] Cells. [Related pubchem assays: 1829 (Project Summary), 1814 (Primary HTS)]. The class given is functional.
Experiment [5] in a line: Luminescence Cell-Based Dose Confirmation HTS to Identify Inhibitors of Platelet Dense Granule Release. [Related pubchem assays: 1663 (Primary HTS), 1678 (Summary of Project)]. The class given is functional.
In experiment [6] the target is Luciferin 4-monooxygenase (Photinus pyralis, UniProt P08659). Put plainly: inhibition of purified Photinus pyralis luciferase – biochemical, luminescence, dose response (AID 1891).
Chain of Luciferin 4-monooxygenase (P08659 whole entry): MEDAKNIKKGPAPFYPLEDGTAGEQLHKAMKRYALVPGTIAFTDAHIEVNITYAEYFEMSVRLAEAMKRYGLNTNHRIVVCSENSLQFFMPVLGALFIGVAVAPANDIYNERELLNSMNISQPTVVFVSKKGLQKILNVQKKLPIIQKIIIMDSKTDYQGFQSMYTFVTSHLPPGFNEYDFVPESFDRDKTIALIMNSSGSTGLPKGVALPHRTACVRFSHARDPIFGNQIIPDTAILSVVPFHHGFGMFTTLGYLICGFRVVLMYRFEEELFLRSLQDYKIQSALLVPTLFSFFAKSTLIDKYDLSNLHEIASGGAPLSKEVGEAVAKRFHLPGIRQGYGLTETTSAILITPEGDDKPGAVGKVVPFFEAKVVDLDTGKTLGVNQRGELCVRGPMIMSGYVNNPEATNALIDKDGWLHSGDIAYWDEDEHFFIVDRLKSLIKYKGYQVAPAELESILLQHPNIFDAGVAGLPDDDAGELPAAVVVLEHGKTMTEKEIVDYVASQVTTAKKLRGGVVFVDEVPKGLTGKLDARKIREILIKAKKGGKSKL
The subject of experiment [7] is H9c2. The experiment in a line: cells. The conditions noted are these: Rattus norvegicus, H9c2, Myocardium. The experiment is classed as functional, cell-based.
For experiment [8], the system named is BJ. Put plainly: BJ-TERT fibroblast viability loss – cell-based, RAS-independent, luminescence, dose response (AID 1933). The experiment is classed as functional. The conditions noted are these: Homo sapiens.
The test system of experiment [9] is BJ. The experiment in a line: cells. The class given is functional, cell-based. As to conditions: Homo sapiens.
Experiment [10] in a line: DRD fibroblast viability loss – cell-based, non-viral oncogenic, luminescence, dose response (AID 1934). The experiment is classed as functional. The conditions noted are these: Homo sapiens.
Experiment [11] deals with BJ. Put plainly: BJ-TERT-LT-ST fibroblast viability loss – cell-based, RAS-independent, luminescence, dose response (AID 1935).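 Also: BJ fibroblasts immortalized with TERT plus LT and ST oncogenes.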 The class given is functional. The conditions noted are these: Homo sapiens.
Experiment [12] can be described thus: alpha-synuclein stem-loop luciferase translation blockers – H4 neuroglioma cells, luminescence, confirmation (AID 1988). The class given is functional, cell-based.
The nature of experiment [13]: Luminescence Cell-Based Dose Response HTS to Identify Inhibitors of 5'UTR Stem-Loop Driven Prion Protein mRNA Translation in H4 Neuroglioblastoma Cells. [Related pubchem assays: 1827 (Project Summary), 1813 (Primary HTS)]. The experiment is classed as functional.
Experiment [14] has as its system INS1. Put plainly: INS-1E survival protection against cytokine death – cell-based, luminescence, retest, dose response (AID 449756).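 Also: cell death triggered by IL-1 beta plus TNF-alpha plus IFN-gamma mixture; protective hits raise ATP signal compared with cytokine alone wells.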 The class given is functional. The conditions noted are these: Rattus norvegicus.
Experiment [15] in a line: luciferase reporter signal suppression in cells – H4 neuroglioma cells, luminescence, dose response (AID 1990). The experiment is classed as functional, cell-based.
A short description of experiment [16]: NIH3T3 cell viability loss – ATP luminescence, mouse fibroblasts, counter-screen, dose response (AID 2010).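 Also: cells exposed to compound for about 90 hours before reading.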 The experiment is classed as functional, cell-based.
Experiment [17] is described as follows: Trypanosoma cruzi growth suppression in host cells – NIH3T3 host cells, beta-gal luminescence, confirmation (AID 2044).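 Also: intracellular parasites grown in NIH/3T3 mouse fibroblasts as host cells; luminescent beta-galactosidase reporter signal from transgenic T. cruzi replicating inside host cells; inhibitors lower the luminescence signal.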 The experiment is classed as functional, cell-based.
For experiment [18], the target named is T2, Rac GTPase-activating protein 1 (Homo sapiens, UniProt Q9H0H5).
T2 sequence (Q9H0H5 whole entry): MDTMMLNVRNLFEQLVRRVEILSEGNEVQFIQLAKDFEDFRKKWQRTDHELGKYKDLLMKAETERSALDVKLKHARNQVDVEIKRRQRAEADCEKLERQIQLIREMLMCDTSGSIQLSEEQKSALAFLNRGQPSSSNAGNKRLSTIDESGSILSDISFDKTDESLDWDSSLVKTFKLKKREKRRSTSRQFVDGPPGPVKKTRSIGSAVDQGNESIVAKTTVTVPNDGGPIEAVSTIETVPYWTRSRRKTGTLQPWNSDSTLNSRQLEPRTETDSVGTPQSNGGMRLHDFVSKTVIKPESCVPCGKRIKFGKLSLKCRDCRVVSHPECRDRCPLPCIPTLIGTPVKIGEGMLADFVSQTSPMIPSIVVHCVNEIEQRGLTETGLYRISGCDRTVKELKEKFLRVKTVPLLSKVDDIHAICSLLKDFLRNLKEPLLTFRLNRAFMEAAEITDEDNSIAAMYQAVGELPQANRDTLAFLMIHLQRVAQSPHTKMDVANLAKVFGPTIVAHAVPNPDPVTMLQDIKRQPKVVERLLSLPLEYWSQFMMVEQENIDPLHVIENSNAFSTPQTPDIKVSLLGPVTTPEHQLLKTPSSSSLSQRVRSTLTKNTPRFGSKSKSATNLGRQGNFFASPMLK
Put plainly: blockers of MgcRacGAP-driven Rac1 GTP hydrolysis – biochemical, ADP Hunter fluorescence, primary and confirmatory, confirmation (AID 624330). The experiment is classed as functional.

Molecules are shown by their SMILES. Calls of active or inactive are those of the source. Rule as the data show it, for most assays here: actives have a measured EC50 and inactives only a lower limit. Where only a bound is given, the exact number is not on record here.

For `O=C(NNC(=O)c1cc(OCC(F)(F)F)ccc1OCC(F)(F)F)c1ccc(Cl)c(Cl)c1`, the IC50 in experiment [1] was 6.1 µM (not active).
With `N#Cc1cnc2sc3ccccc3n2c1=N`, the EC50 in experiment [2] was 11.7 µM (active); in experiment [3], 15.9 µM (active); in experiment [4] it was 10.6 µM (active).
Consider `CCN(C(=O)COC(=O)c1cc(-c2cccs2)nc2ccccc12)C1CCS(=O)(=O)C1` (centres undefined), for which the EC50 in experiment [5] and in experiment [6] was > 112 µM (not active) in each case.
As to `COc1ccc(N2CCN(C(=O)Cn3cnc4c(cnn4-c4ccccc4)c3=O)CC2)cc1`, in [1], the IC50 is on record as 4.18 µM (not active).
As to `COC(=O)C(Cc1ccc(O)cc1)NC(=O)C12CC3CC(CC(C3)C1)C2` (centres undefined), the EC50 in experiment [5] is 17.2 µM (active); in experiment [6], > 112 µM (not active).
For `CCn1nc(C(=O)OCC(=O)c2c[nH]c3ccccc23)c2ccccc2c1=O`, the IC50 in experiment [7] is > 79 µM (inactive); in experiment [1], 3.99 µM (not active).
Take `CC(C)(C)c1ccc(C(=O)NCc2ccco2)cc1`: the 50% effective concentration (EC50) in [2] is 13.7 µM (active); in experiment [3], 20.9 µM (active); in experiment [4] it was 31 µM (active).
With `Cc1nn(C)c(Oc2ccccc2)c1CCNC(=O)CCl`, the EC50 in experiment [8] was 28.9 µM (active); in experiment [9] it was > 150 µM (not active); in experiment [10], > 150 µM (not active); in [11] it was > 150 µM (not active).
In the case of `Cc1ccc(NC(=O)CNC(=O)c2ccccc2F)cc1Cl`, in experiment [1], the IC50 is 37.6 µM (not active).
Regarding `CCOc1cc(NC(=O)C2CC2)c(OCC)cc1NC(=O)c1ccccn1`, the IC50 in [7] is 12.6 µM (active).
Turning to `c1csc(-c2nn3c(Cn4nnc5ccccc54)nnc3s2)c1`, the EC50 in [5] and in experiment [6] was > 112 µM (not active) throughout.
For the molecule `Cc1cc(NC(=O)COc2nnc(-c3ccccc3)c3ccccc23)no1`, in experiment [7], the IC50 was 32.3 µM (inactive).
Turning to `CCCCc1c(O)nc(SCC(=O)N2CCOCC2)nc1O`, the EC50 in experiment [5] and in [6] was > 112 µM (not active) each time.
Consider `Cn1c2ccc(F)cc2c2nnc(NN)nc21`, for which the IC50 in [7] is > 79 µM (inactive).
Turning to `CCOc1ccc(N(CC(=O)Nc2cccc(OC)c2)S(=O)(=O)c2c(C)noc2C)cc1`, the IC50 in [1] is listed as 5.86 µM (not active).
For `CCOc1ccc(C(C(=O)NC2CCCC2)N(C(=O)c2snc(C(N)=O)c2N)c2cccc(O)c2)cc1` (centres undefined), the IC50 in experiment [7] is > 79 µM (inactive).
As to `N#CCCSc1ccccc1NC(=O)c1cc(=O)c2ccccc2o1`, in experiment [7], the IC50 is 19.3 µM (active).
As for `Cc1nc2sc3c(c2c(=O)n1NC(=O)CCl)CCCC3`, the EC50 in experiment [8] is 30.8 µM (active); in experiment [9], > 150 µM (not active); in [10], > 150 µM (not active); in [11], > 150 µM (inconclusive).
With `COc1cccc(NC(=O)N(C2CCCCC2)C(C)c2cccs2)c1` (centres undefined), the IC50 in [1] is 8.59 µM (not active).
As to `CC(Cc1ccccc1)/[N+]([O-])=C\c1ccc(C(F)(F)F)cc1` (centres undefined), the EC50 in experiment [2] is 4.53 µM (active); in [3], 1.2 µM (active); in [4], 6.29 µM (active).
Regarding `COc1cccc(OCCNC(=O)c2cccc(OC)c2)c1`, the EC50 in experiment [5] and in experiment [6] was > 112 µM (not active) each time.
Turning to `O=C(NCc1ccccc1)C1=C[C@@H](c2csc3ccccc23)C[C@@H](OCCCCO)O1`, the EC50 in experiment [12] is 9.75 µM (active); in [13], 10.5 µM (active); in experiment [8], 22.8 µM (inconclusive); in experiment [9], 35.8 µM (active); in [15], 11.2 µM (active); in experiment [10], 28.4 µM (active). Moreover, in experiment [11], the EC50 was > 150 µM (not active). The AC50 in experiment [14] is 1.43 µM (active).
Consider `Cc1ccc(Nc2c([N+](=O)[O-])nn(-c3ccc4c(c3)OCCO4)[n+]2[O-])c(Cl)c1`, for which the EC50 in experiment [16] was > 60 µM (not active); in experiment [17], 0.199 µM (active). Moreover, in [1], the IC50 is listed as 23.1 µM (not active).
Turning to `O=c1c2c(-c3cccs3)csc2ncn1-n1cccc1`, in experiment [1], the IC50 was > 50 µM (not active).
Consider `CC(=O)Nc1ccc(NC(=O)Cn2nc([N+](=O)[O-])c(Br)c2C)cc1`, for which the concentration for half-maximal inhibition (IC50) in experiment [1] was 11.6 µM (not active).
Turning to `Cc1ccc(NC(=O)c2cc(S(=O)(=O)N3CCOCC3)cn2C)c(C)c1`, the concentration giving a half-maximal response (EC50) in [5] and in experiment [6] was > 112 µM (not active) throughout.
On to `CCn1c(SCC(=O)N2CCCC(C)C2)nnc1-c1ccco1` (centres undefined), for which the EC50 in experiment [5] and in experiment [6] was > 112 µM (not active) each time.
On to `N=C(NOC(=O)c1cc(Cl)ccc1Cl)c1ccncc1`, for which the 50% effective concentration (EC50) is 28.1 µM (active) in [2], 9.04 µM (active) in experiment [3] and 1.87 µM (active) in experiment [4].
As to `N#Cc1cc2c(nc1SCC(=O)Nc1sc3c(c1C#N)CCC3)CCC2`, the EC50 in experiment [8] was 98.7 µM (active); in experiment [9], > 150 µM (not active); in experiment [10], 32.8 µM (active); in experiment [11], > 75 µM (not active).
Take `O=C(CCc1nc(O)c2ccccc2n1)Nc1ccc(Cl)c(Cl)c1`: the IC50 in experiment [7] is 15.4 µM (active).
Consider `Cc1ccc(CN(C)C(=O)COC(=O)CSc2ccc(C(N)=O)cc2[N+](=O)[O-])cc1`, for which, in experiment [7], the IC50 is > 79 µM (inactive).
Consider `O=CNc1cc(-c2ccc(C(=O)NC3CC3)cc2)cn2c(-c3ccccc3)cnc12`, for which the IC50 in experiment [7] is > 79 µM (inactive).
Consider `COc1ccc(OCC(=O)NCc2nnc(O)c3ccccc23)cc1`, for which the IC50 in experiment [7] is > 79 µM (inactive).
As to `Oc1ccc(Br)cc1/C=N/c1ccc2c3c(cccc13)CC2`, the IC50 in [18] is 33.5 µM (active); in [7] it was > 79 µM (inactive).

These data come from ChEMBL document CHEMBL1201862, “PubChem BioAssay data set” (2004).
